Measured values from patent publication US20260263517A1, “THERAPEUTIC METHODS WITH TARGET-LINKED SMALL MOLECULES AND ANTI-TARGET CAR T CELLS” (Seattle Children's Hospital (dba Seattle Children's …, priority 2022, published 2026).
Entries after “also recorded” stand apart in the source; their conditions may differ.

How the values were obtained:
THP1-FRβ tumor cells = experiment: intravenous THP1-FRβ AML xenograft, E2 CAR-T cells plus EC17 dosing regimens; type: in vivo
Procedure: One objective of this E2-CAR T-cell study was to test EC17/E2 CAR-T cell activity and related toxicity (e.g., sCRS) using multiple dosing regimens starting 3 days after CAR-T infusion. Three different EC17 dosing regimens include (a) once-a-week (SIW) at 500 nmol/kg, (b) “T1W-like” at 5, 50, and 500 nmol/kg on Monday/Wednesday/Friday with 9-day intervals, and (c) “T1W-like” at 5, 100, and 1000 nmol/kg on Monday/Thursday/Monday with 7-day intervals.
THP-1-FRβ AML tumor cells were grown in folate-deficient RPMI 1640 with 5-10% FBS at 37° C. in a 5% CO2 humidified atmosphere. THP-1-FRO tumor cells in serum-free folate-deficient RPMI1640 medium were i.v. injected at 5×10^6 cells per animal.
Anti-FITC E2 scFv-CAR T cells were frozen in a T-cell freezing medium. Upon arrival, vials of frozen CAR-T cells were immediately stored at −80° C. The CAR-T cells were quickly thawed at 37° C., washed twice with CAR-T cell culture medium, and used for animal injection at 6 million viable EGFRt+E2 CAR-T cells (CD4/CD8 at ~1:1) per animal. A small aliquot was taken on the day infusion for flow cytometric analysis of E2-CAR T-cell phenotypes.
EC17 and bis-EDA-FITC dosing solutions were prepared when dosing began by weighing appropriate amounts of each compound, reconstituting in PBS, pH 7.4, sterile filtering the drug solution through a 0.22 pm PVDF syringe filter, and freezing aliquots for each day of dosing at −20° C.
All EC17 doses were given towards the end of day (3-4 PM) to allow potential CRS (cytokine release syndrome) to develop overnight. In the following morning, animals were scored according to a CRS grading system (see below).
Daily body weight measurement on the days after EC17 dose is required. Attention was given to gross animal morphology and behavior. Euthanasia was performed if mice lose a lot of weight in a short duration or when mice are approaching moribund conditions per CRS grading system or neurotoxicity.
Tumor growth, body weight, and overall assessment: Body weight measured 2-3 times/week. On the days immediately after any EC17 dose, body weight measurement was taken daily, and attentions were given to gross animal morphology and behavior.
Whole blood cell analysis: Plasma was removed from predetermined volumes of whole EDTA treated blood and RBCs were lysed with RBC lysis solution. The leukocyte pellets were then resuspended in flow cytometry staining solution (1% bovine serum albumin, 50 mg/mL human IgG (Equitech Bio, cat #SLH56-0001), 0.9% sodium azide in a phosphate buffered saline, pH=7.4) and leukocyte surface marker staining was performed using the following antibodies: anti-human CD45 (clone HI30, eBioscience #47-0459-42 at 1:20 (v/v) dilution), anti-human CD137 (clone 4B4-1, BD Bioscience #564092 at 1:20 (v/v) dilution), anti-human CD8α [clone RPA-T8, BD Bioscience, catalog #557746 at 1:20 (v/v) dilution], anti-human CD4 [clone SK3, eBioscience catalog #46-0047-42 at 1:20 (v/v) dilution], anti-human EGFR [R&D systems, clone Hu1, catalog #FAB9577B @1:10(n/n)], anti-human PD1 [BD Biosciences, clone EH12.1, catalog #562511 @1:20 (v/v)], anti-human LAG3 [BD Biosciences, clone T47-530, catalog #565616 @1:20 (v/v)], anti-human TIM3 [BD Biosciences, clone 7D3, catalog #565558 @1:20 (v/v)], anti-human CD3ε [BD Biosciences, clone SK7, catalog #557832 @1:20 (v/v)]. After leukocyte staining, cells were washed with PBS and resuspended in cold PBS containing 53,000 CountBright™ beads [Invitrogen catalog #C36950] and transferred to flow cytometry collection tubes. Flow cytometry data was collected on the Gallios flow cytometer (Beckman Coulter, Brea, CA). Determination of the concentration of CAR T cells in each blood sample was calculated according to Invitrogen's instructions. CAR T cells were identified as human CD3ε+EGFRt+ events and easily distinguished and counted using the Kaluza™ flow cytometry software. […]

[1] = EC17 dose finding and CRS assessment in tumor-free mice; type: in vivo, NSG mice
Excerpt: For MDA-MB-231 studies, mice received a high dose (~10 million) of a “clinical facsimile” of E2-CAR-T cells (~39% EGFRt+) with a low differentiation profile (FIG. 9). Two days later, 3 different treatment regimens of EC17 were started at an average tumor size of −293±39 mm^3 (FIG. 12). The EC17 dosing was given once-a-week (SIW) at 500 nmol/kg on Mondays, or as escalating doses of 5, 50 or 100, and 500 or 1000 nmol/kg (i.e., 5/50/500 or 5/100/1000) on Monday, Thursday, and Monday with a 6-day break in-between cycles. Control mice were left untreated (received CAR-T cells but no EC17). For comparison, a cohort of tumor-free littermates also received the same number of CAR-T cells without or with EC17 SIW at 500 nmol/kg.
The initial EC17 dose finding studies were conducted in MDA-MB-231 tumor bearing mice as shown by the schematic diagram of the experimental layout (FIG. 12, panel A). NSG mice without or with MDA-MB-231 tumors (~211±65 mm3) were engrafted on day 0 with −10 million of a “clinical facsimile” batch of E2-CAR-T cells (−39% EGFRt+, 51:49 CD4/CD8). This batch of CAR-T cells consisted of mostly TSCM and TCM phenotypes (see FIG. 9). Two days after the CAR-T cell injection, one cohort of tumor-bearing mice were left untreated while three cohorts were treated with different regimens of EC17, including single injection per week (SIW) at 500 nmol/kg, or as escalating EC17 dose levels of 5/50/500 (Escalation-1) or 5/100/1000 nmol/kg (Escalation-2) given on a Monday/Thursday/Monday schedule with 1-week drug-free intervals. For comparison, two tumor-free cohorts were either untreated or treated with EC17 SIW at 500 nmol/kg.

tumor cell surface FR = conditions: cited from earlier work
[2] = 6 million CAR-T + EC17 SIW 500 nmol/kg (Cohort 3)

In the case of `NC1=NC2N=CC(CNc3ccc(C(=O)N[C@@H](CCC(=O)NCCNC(=S)Nc4ccc(-c5c6ccc(=O)cc-6oc6cc(O)ccc56)c(C(=O)O)c4)C(=O)O)cc3)=NC2C(=O)N1` (some centres unmarked) [EC17, FA-(γ)-ethylenediamine-FITC], the body weight loss (THP1-FRβ tumor cells; 6 million CAR-T + EC17 M/Th/M dose escalation (Cohort 5)) is reported as “little body weight loss during the first two cycles; also recorded: very mild body weight loss”, the CRS grade (THP1-FRβ tumor cells; [2]) is reported as 1-2 and the body weight loss (THP1-FRβ tumor cells; [2]) is reported as “EC17 dose-dependent body weight loss after each EC17 dose; also recorded: some body weight loss”. For the same compound, the body weight loss (THP1-FRβ tumor cells; 6 million CAR-T + EC17 TIW 5/50/500 nmol/kg on/off (Cohort 4)) was “mildest body weight loss among three treatment groups; also recorded: least body weight loss”, the “circulating THP1-FRβ (GFP+) tumor cells in blood” value (THP1-FRβ tumor cells; E2 CAR T cells + EC17, all three dosing regimens, end of study) was “significant reduction in circulating THP1 cell burden; also recorded: effectively reduced circulating THP11-FRβ tumor cells in the blood” and the non-liver macrometastases (THP1-FRβ tumor cells; EC17 M/Th/M dose escalation at a slow pace per cycle) was “failed to control the non-liver macrometastases”. The non-liver macrometastases (THP1-FRβ tumor cells; EC17 SIW 500 nmol/kg) was “successfully controlled non-liver macrometastases”, the non-liver macrometastases (THP1-FRβ tumor cells; EC17 TIW 5/50/500 nmol/kg on/off) was “successfully controlled non-liver macrometastases” and the “liver and non-liver (overall) tumor burden” value (THP1-FRβ tumor cells; EC17 TIW 5/50/500 nmol/kg on/off (Cohort 4), Day 39) was “best anti-tumor activity among the three different EC17 dose schedules; also recorded: trended to be the best regimen”. The “co-expression of PD1, LAG3, TIM3 on CAR T cells from liver tumors” value (THP1-FRβ tumor cells; EC17 TIW (cohort 4)) was “fewest number of double and triple positive events”, the “CAR T exhaustion” value (THP1-FRβ tumor cells; all three EC17 dosing regimens) was “very little induction of CAR T exhaustion” and the “severe CRS (grades≥3)” value (THP1-FRβ tumor cells; any EC17 treated cohort) was “no severe CRS (i.e., grades≥3) was observed”. For the same compound, the “circulating CAR-T cells in blood” value (THP1-FRβ tumor cells; satellite animals, day 31, all EC17 treated cohorts) was “EC17-dependent CAR-T cell expansion and persistence in all treated cohorts”, the “CAR-T cell expansion by flow cytometry” value ([1]; tumor-free cohorts) was “no CAR-T cell expansion was detected” and the body weight loss ([1]; tumor-free mice, CAR-T cells + two weekly doses of EC17 at 500 nmol/kg) was “no CRS symptoms (grade 0 out of a 0-5 scale) or body weight loss”. For the same compound, the IFNγ in plasma ([1]; tumor-free, CAR-T cells plus EC17, days 11 and 12) was “low levels of IFNγ were detected” and the “affinity for tumor cell surface FR” value (tumor cell surface FR) was “sub-nanomolar”.
